The values that follow come from patent US20080182805A1, “O-GlcNAcase-specific inhibitor and substrate engineered by the extension of the N-Acetyl moiety” (The Gov. of the U.S.A., as represented by the Secretary, …, priority 2007, published 2008).

One experiment addresses T1, O-GlcNAcase (Homo sapiens, UniProt O60502).
T1 construct: made in house
T1 sequence (O60502 1-916): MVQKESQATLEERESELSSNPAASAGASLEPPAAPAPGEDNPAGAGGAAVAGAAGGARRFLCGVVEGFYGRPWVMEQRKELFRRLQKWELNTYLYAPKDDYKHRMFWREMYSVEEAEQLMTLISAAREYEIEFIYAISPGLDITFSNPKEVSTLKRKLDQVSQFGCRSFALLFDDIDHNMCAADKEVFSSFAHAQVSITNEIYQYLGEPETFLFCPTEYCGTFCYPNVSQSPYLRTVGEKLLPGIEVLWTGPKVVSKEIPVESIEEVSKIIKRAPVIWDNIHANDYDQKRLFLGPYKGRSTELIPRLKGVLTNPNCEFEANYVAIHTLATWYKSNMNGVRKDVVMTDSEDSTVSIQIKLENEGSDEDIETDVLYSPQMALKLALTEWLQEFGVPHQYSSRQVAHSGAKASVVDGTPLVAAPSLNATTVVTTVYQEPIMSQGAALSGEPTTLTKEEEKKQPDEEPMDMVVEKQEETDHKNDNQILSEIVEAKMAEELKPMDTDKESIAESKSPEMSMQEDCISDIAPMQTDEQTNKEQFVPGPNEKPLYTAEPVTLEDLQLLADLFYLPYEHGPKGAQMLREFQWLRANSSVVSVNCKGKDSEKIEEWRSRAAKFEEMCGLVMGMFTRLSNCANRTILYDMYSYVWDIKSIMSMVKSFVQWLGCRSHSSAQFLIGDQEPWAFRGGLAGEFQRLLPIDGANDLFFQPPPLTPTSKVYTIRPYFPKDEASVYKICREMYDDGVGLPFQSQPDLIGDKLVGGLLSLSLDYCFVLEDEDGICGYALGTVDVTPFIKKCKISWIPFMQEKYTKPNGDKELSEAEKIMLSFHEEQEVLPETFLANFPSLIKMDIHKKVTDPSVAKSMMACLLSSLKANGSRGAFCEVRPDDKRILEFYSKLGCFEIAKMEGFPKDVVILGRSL
The experiment can be described thus: Inhibition of O-GlcNAcase measured with nonselective fluorogenic substrate (3). The experiment is classed as biochemical. To be noted: fluorescence λex=485 nm, λem=535 nm. The method, then: (§1) The analysis of (2) was accomplished using previously reported methods.^9,11 For the determination of the inhibitory selectivity of both PUGNAc (1) and 2 at O-GlcNAcase, HEX A, and HEX B, the nonselective fluorogenic substrate (3) was utilized. The level of inhibition was determined based upon the quantification of fluorescence measured in the absence and presence of both PUGNAc (1) and (2) (intensity of fluorescence was measured at λex=485 nm at λem=535 nm). The results are compiled in FIG. 2. The analysis of (4) as a highly specific substrate for O-GlcNAcase activity was performed by the parallel treatment of O-GlcNAcase and HEX A with varying concentrations of (4) over a 45 min incubation period and the quantification of the resulting fluorescence. The results are compiled in FIG. 3.

The next experiment deals with T2, HEX A (Homo sapiens, UniProt P06865+P07686).
T2 sequence (P06865 89-529): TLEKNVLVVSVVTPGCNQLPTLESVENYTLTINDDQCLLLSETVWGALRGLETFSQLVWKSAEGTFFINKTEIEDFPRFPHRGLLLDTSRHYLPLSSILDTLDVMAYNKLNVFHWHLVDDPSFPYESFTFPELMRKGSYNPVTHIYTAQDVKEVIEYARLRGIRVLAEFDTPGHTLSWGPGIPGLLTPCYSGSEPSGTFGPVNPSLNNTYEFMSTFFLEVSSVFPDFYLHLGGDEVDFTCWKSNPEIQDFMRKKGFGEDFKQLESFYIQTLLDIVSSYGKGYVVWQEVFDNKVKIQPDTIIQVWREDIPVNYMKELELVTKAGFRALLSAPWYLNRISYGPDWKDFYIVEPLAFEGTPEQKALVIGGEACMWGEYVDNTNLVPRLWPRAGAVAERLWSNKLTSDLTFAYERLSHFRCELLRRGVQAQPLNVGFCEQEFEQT
T2 sequence (P07686 122-556): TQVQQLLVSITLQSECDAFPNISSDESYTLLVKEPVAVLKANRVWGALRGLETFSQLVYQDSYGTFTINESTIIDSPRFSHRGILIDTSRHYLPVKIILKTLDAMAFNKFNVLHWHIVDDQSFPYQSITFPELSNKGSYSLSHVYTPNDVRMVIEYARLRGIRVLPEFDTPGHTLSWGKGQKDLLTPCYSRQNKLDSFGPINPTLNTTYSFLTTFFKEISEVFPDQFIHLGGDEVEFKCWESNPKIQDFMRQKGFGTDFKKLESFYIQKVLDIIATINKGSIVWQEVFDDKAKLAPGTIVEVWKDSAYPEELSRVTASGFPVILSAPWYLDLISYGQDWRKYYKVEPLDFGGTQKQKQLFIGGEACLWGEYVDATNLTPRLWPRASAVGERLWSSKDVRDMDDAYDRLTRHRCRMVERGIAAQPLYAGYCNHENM
Description: Inhibition of HEX A measured with nonselective fluorogenic substrate (3). The format is biochemical. The following applies: for inhibition of HEX A: fluorescence λex=485 nm, λem=535 nm. The method, then: as §1

Another experiment addresses T3, HEX B (Homo sapiens, UniProt P07686).
T3 sequence (P07686 122-556): T2 sequence (P07686 122-556)
The experiment can be described thus: Inhibition of HEX B measured with nonselective fluorogenic substrate (3). The experiment is classed as biochemical. To be noted: fluorescence λex=485 nm, λem=535 nm. The method, then:
as §1

In the next experiment the test system is fat cells. To be noted: cited from earlier work.

With `CC(=O)N[C@H]1/C(=N/OC(=O)Nc2ccccc2)O[C@H](CO)[C@@H](O)[C@@H]1O` [PUGNAc, O-(2-acet-amido-2-deoxy-D-glucopyranosylidene)amino-N-phenylcarbamate], the “inhibition of O-GlcNAcase” value against O-GlcNAcase is “potently inhibit”. Further, the “inhibition of HEX A” value at HEX A is reported as “potently inhibit”. The “inhibition of HEX B” value against HEX B was “potently inhibit”. Further, in the experiment on fat cells, the “effect on insulin resistance in fat cells” value is “induces insulin resistance”.

Take `CCCCC(=O)N[C@H]1/C(=N/OC(=O)Nc2ccccc2)O[C@H](CO)[C@@H](O)[C@@H]1O` [compound 2]: at O-GlcNAcase, the “inhibition of O-GlcNAcase” value is “slightly decreases the inhibitory potency”. Also, on HEX A, the “concentration up to which selectivity (no inhibition) was verified against HEX A” value is more than 30 µM and the “inhibition of HEX A” value is reported as “total loss of inhibitory activity”. For the same compound, the “inhibition of HEX B” value on HEX B was “total loss of inhibitory activity”.
